# Where a name gives a salt, the structure may show the parent alone.
# Key:
# [1] = Plasma pharmacokinetics of LDA and LD after oral LDA-HCl with and without CD in rats; type: in vivo; details: oral LDA-HCl 25 mg/kg with or without oral 10 mg/kg CD
# Experimental: The purpose of this experiment was to determine the plasma pharmacokinetics of LDA and LD following oral administration of LD or LDA-HCl with and without CD in Wistar rats.
# Wistar rats underwent fasting overnight prior to the dosing and received food only 2 hour post-dosing. The method used to dose orally was via oesophagotubage. Solutions were prepared as described above.
# [2] = Effect of preparation method and pH on stability of LDA-HCl/CD formulations; type: physicochemical; details: 5 days at room temperature (Table 7)
# Experimental: LDA-HCl/CD formulations were prepared by the following methods, and were then tested for stability. Method 1. Carbidopa (CD, powder) [Teva Pharmaceuticals Ltd., Israel] was added to LDA-HCl solution. […] Precipitation occurred at room temperature. Method 2. Liquid CD formulations were prepared by weighting CD [Teva Pharmaceuticals Ltd., Israel] in a suitable container with different L-arginine [Merck] weights to obtain a final concentration of 0.8% CD (wet form, 0.75% dry form) in different molar ratios to arginine (Table 6). CD formulations were prepared as described in the International Publication No. WO 2010/134074. LDA-HCl (powder) was added to CD solutions to attain the final desired concentration of LDA-HCl/CD formulations. Method 3. CD solutions (40 mg/ml, prepared as described in the International Publication No. WO 2010/134074) were mixed with LDA-HCl solutions to attain the final desired concentration of LDA/CD formulations. The LDA-HCl formulations were prepared by dissolving 200, 160 or 120 mg/ml of LDA-HCl in 40 mM citric buffer. The chemical stability of 7 LDA-HCl/CD formulations was evaluated by HPLC analysis at t0 and after 5 days at room temperature. The recovery after 5 days at room temperature was calculated compared to t0 (Table 7).
# [3] = Chemical stability (HPLC) of LDA-HCl 50 mg/ml in water or buffers after 24 h at room temperature; type: physicochemical
# Experimental: (§1) Liquid formulations were prepared by dissolving LDA-HCl, 50 mg/ml in water or different buffers (40 mM) at various pH levels. The physical stability of LDA was determined visually after 24 hours and 7 days (Table 3), and the chemical stability of LDA was determined by HPLC analysis (Table 4) after 24 h at room temperature (RT) and expressed as % recovery compared to t0.
# [4] = Long term stability of LDA-HCl 200 mg/ml in citric buffer with NAC, 2 weeks at 37° C.; type: physicochemical
# Experimental: Liquid formulation comprising LDA-HCl in citric buffer was prepared by dissolving 200 mg/ml LDA-HCl in 40 mM citric buffer with 0.05% N-acetylcysteine (NAC) as antioxidant. The formulation was incubated for 2 weeks at 37° C. The stability of LDA after 14 days at 37° C. was evaluated by HPLC analysis, and the recovery calculated compared to t0 (Table 5).
# [5] = Physical stability of LDA-HCl solutions with or without added CD-Arg formulation; type: physicochemical; details: preferably pH >4.6
# Experimental: HCl solutions at 3 different concentrations containing 0.3% Tween 80 were added to LDA to obtain solutions having a final LDA concentration of 200 mg/ml and a molar ratio of 1:0.89, 1:0.92 and 1:0.95 LDA:HCl. CD-Arg formulation (CD:Arg molar ratio 1:1.25) was prepared in Tween 80 0.3% and was added gradually under stirring to 4 volumes of each of the 3 LDA-HCl solutions. The physical stability of the solutions was evaluated (Table 15). As shown, the addition of CD to LDA-HCl solutions yielded stable solutions if added to LDA-HCl solutions having a pH>3.8, preferably pH >4.6.
# [6] = Physical stability (visual) of LDA-HCl 50 mg/ml in water or buffers at room temperature; type: physicochemical; details: for Color at T = 24 h (RT): 50 mg/ml; for time physically stable at room temperature: 5% LDA-HCl and water or a buffer
# Experimental: as §1
# [7] = Stability of LDA-HCl 50 mg/ml in citrate or phosphate buffer, 4 days at 37° C., HPLC; type: physicochemical
# Experimental: Liquid formulations were prepared by dissolving LDA-HCl, 50 mg/ml in buffer citrate or buffer phosphate at different pH levels (Table 2). The formulations were incubated 4 days at 37° C., their stability was evaluated by HPLC analysis at the end of the fourth day, and the recovery after 4 days at 37° C. was calculated compared to T=0.
# [8] = 200 mg/ml LDA-HCl, 40 mM citric buffer, 0.05% NAC
smiles,measurement,setting,value
"C[C@@](Cc1ccc(O)c(O)c1)(NN)C(=O)O [CD, Carbidopa]",effect of CD on plasma concentration of LD,[1],increases
same,effect of CD on plasma concentrations of LDA,[1],no effect
same,chemical stability in LDA-HCl/CD formulations,[2],pH-dependent
"NC(=O)C(N)Cc1ccc(O)c(O)c1 (stereo not drawn) [LDA-HCl, 2-amino-3-(3,4-dihydroxyphenyl)propanamide]",time chemically stable at room temperature,"[3]; 5% LDA-HCl and water or a buffer, pH ranging between 3 to 7",at least 24 h
same,LDA (mg/ml) at T = 0,[3]; Acetate pH 3.76,52.09 mg/mL
same,LDA (mg/ml) at T = 24 hr (RT),[3]; Acetate pH 3.76,52.41 mg/mL
same,LDA (mg/ml) at T = 0,[3]; Acetate pH 4.72,52.66 mg/mL
same,LDA (mg/ml) at T = 24 hr (RT),[3]; Acetate pH 4.72,53.05 mg/mL
same,LDA (mg/ml) at T = 0,[3]; Citrate pH 3.09,51.84 mg/mL
same,LDA (mg/ml) at T = 24 hr (RT),[3]; Citrate pH 3.09,52.09 mg/mL
same,LDA (mg/ml) at T = 0,[3]; Citrate pH 3.9,51.34 mg/mL
same,LDA (mg/ml) at T = 24 hr (RT),[3]; Citrate pH 3.9,51.7 mg/mL
same,LDA (mg/ml) at T = 0,[3]; Citrate pH 4.85,52.05 mg/mL
same,LDA (mg/ml) at T = 24 hr (RT),[3]; Citrate pH 4.85,52.75 mg/mL
same,LDA (mg/ml) at T = 0,[3]; Citrate pH 5.65,51.24 mg/mL
same,LDA (mg/ml) at T = 24 hr (RT),[3]; Citrate pH 5.65,51.03 mg/mL
same,LDA (mg/ml) at T = 0,[3]; Histidine pH 6.2,51.27 mg/mL
same,LDA (mg/ml) at T = 24 hr (RT),[3]; Histidine pH 6.2,51.76 mg/mL
same,LDA (mg/ml) at T = 0,[3]; Phosphate pH 6.03,51.32 mg/mL
same,LDA (mg/ml) at T = 24 hr (RT),[3]; Phosphate pH 6.03,51.36 mg/mL
same,LDA (mg/ml) at T = 0,[3]; Phosphate pH 6.32,52.05 mg/mL
same,LDA (mg/ml) at T = 24 hr (RT),[3]; Phosphate pH 6.32,51.82 mg/mL
same,LDA (mg/ml) at T = 0,[3]; Tartrate pH 3.84,52.46 mg/mL
same,LDA (mg/ml) at T = 24 hr (RT),[3]; Tartrate pH 3.84,52.26 mg/mL
same,LDA (mg/ml) at T = 0,[3]; Tris pH 5.39,51.88 mg/mL
same,LDA (mg/ml) at T = 24 hr (RT),[3]; Tris pH 5.39,52.08 mg/mL
same,LDA (mg/ml) at T = 0,[3]; Tris pH 6.14,51.79 mg/mL
same,LDA (mg/ml) at T = 24 hr (RT),[3]; Tris pH 6.14,51.73 mg/mL
same,LDA (mg/ml) at T = 0,[3]; Tris pH 6.61,51.62 mg/mL
same,LDA (mg/ml) at T = 24 hr (RT),[3]; Tris pH 6.61,51.74 mg/mL
same,LDA (mg/ml) at T = 0,[3]; WFI pH 3.56,51.91 mg/mL
same,LDA (mg/ml) at T = 24 hr (RT),[3]; WFI pH 3.56,51.34 mg/mL
same,LDA (mg/ml) at T = 0,[3]; WFI pH 4.14,51.3 mg/mL
same,LDA (mg/ml) at T = 24 hr (RT),[3]; WFI pH 4.14,51.57 mg/mL
same,LDA (mg/ml) at T = 0,[3]; WFI pH 4.95,51.07 mg/mL
same,LDA (mg/ml) at T = 24 hr (RT),[3]; WFI pH 4.95,50.23 mg/mL
same,LDA (mg/ml) at T = 0,[3]; WFI pH 5.93,51.32 mg/mL
same,LDA (mg/ml) at T = 24 hr (RT),[3]; WFI pH 5.93,50.5 mg/mL
same,LDA (mg/ml) at T = 0,[3]; WFI pH 6.44,51.24 mg/mL
same,LDA (mg/ml) at T = 24 hr (RT),[3]; WFI pH 6.44,50.33 mg/mL
same,LDA (mg/ml) at T = 0,[3]; WFI pH 6.91,51.05 mg/mL
same,LDA (mg/ml) at T = 24 hr (RT),[3]; WFI pH 6.91,49.54 mg/mL
same,LDA content at T = 0,[4]; [8],18.69
same,"LDA content at T = 2 w, 37° C.",[4]; [8],19.01
same,time stable,[4]; high concentrations of LDA-HCl and NAC in citric buffer,at least 14 days
same,pH of LDA-HCl solution at which addition of CD yielded stable solutions,[5],> 3.8
same,Color at T = 24 h (RT),[6]; Acetate pH 3.76,light yellow
same,Color at T = 24 h (RT),[6]; Acetate pH 4.72,light yellow
same,Color at T = 24 h (RT),[6]; Citrate pH 3.09,light yellow
same,Color at T = 24 h (RT),[6]; Citrate pH 3.90,light yellow
same,Color at T = 24 h (RT),[6]; Citrate pH 4.85,light yellow
same,Color at T = 24 h (RT),[6]; Citrate pH 5.65,medium yellow
same,Color at T = 24 h (RT),[6]; Histidine pH 6.20,medium yellow
same,Color at T = 24 h (RT),[6]; Phosphate pH 6.03,medium yellow
same,Color at T = 24 h (RT),[6]; Phosphate pH 6.32,medium yellow
same,Color at T = 24 h (RT),[6]; Tartrate pH 3.84,light yellow
same,Color at T = 24 h (RT),[6]; Tris pH 5.39,light yellow
same,Color at T = 24 h (RT),[6]; Tris pH 6.14,medium yellow
same,Color at T = 24 h (RT),[6]; Tris pH 6.61,medium yellow
same,Color at T = 24 h (RT),[6]; Water for injection (WFI) pH 3.56,light yellow
same,Color at T = 24 h (RT),[6]; Water for injection (WFI) pH 4.14,light yellow
same,Color at T = 24 h (RT),[6]; Water for injection (WFI) pH 4.95,light yellow
same,Color at T = 24 h (RT),[6]; Water for injection (WFI) pH 5.93,medium yellow
same,Color at T = 24 h (RT),[6]; Water for injection (WFI) pH 6.44,medium yellow
same,Color at T = 24 h (RT),[6]; Water for injection (WFI) pH 6.91,strong yellow
same,time physically stable at room temperature,[6]; all conditions tested,24 h
same,time physically stable at room temperature,[6]; only formulations having a pH<5.5,at least 7 days
same,stability at 37° C.,[7]; in buffer phosphate at pH>5.7,not stable
same,time stable at 37° C.,[7]; in citrate buffer,at least 4 days

# Source: US20170296491A1, “PHARMACEUTICAL COMPOSITIONS COMPRISING LEVODOPA AMIDE AND USES THEREOF” (priority 2015, published 2017)
